Assay results taken from patent US20080090812A1 (priority 2004, published 2008).
“Also recorded” adds a separate entry of the source. Where a SMILES comes first, the peptide text is derived from it. The star is where a group is joined. Cbz = O=C(OCc1ccccc1)*; CH2F = FC*

What was measured:
B-CLL cells [1] = experiment: Flow cytometry-based in vitro apoptosis assay (FSC/SSC, Annexin V) in primary B-CLL cells; assay type: cell-based, human; settings: for degree of apoptosis in the cell culture: B-CLL cultures of the p53/GADD45 experiment (FIG. 4b); for mean LD50 in previously treated versus untreated patient sub-set: 34 patient cohort (FIG. 5)
Description: Peripheral blood samples from 34 patients with B-CLL (20 untreated and 14 treated) and 10 age-matched normal controls were obtained with the patients' informed consent. B-CLL was defined by clinical criteria as well as cellular morphology and the co-expression of CD19 and CD5 in lymphocytes simultaneously displaying restriction of light-chain rearrangement. Staging was based on the Binet classification system.^14 None of the previously treated patients had received therapy for at least three months prior to this study.
Freshly isolated peripheral blood lymphocytes (1×10^6/ml) were cultured in Eagles medium (Invitrogen, Paisley, UK) supplemented with 100 units/ml penicillin, 100 μg/ml streptomycin and 10% fetal calf serum. Lymphocytes were incubated at 37° C. in a humidified 5% carbon dioxide atmosphere in the presence of SJG-136 (10^−10−10^−7 M). […]
In this study changes in forward light scatter (FSC) and side light scatter (SSC) characteristics were used to quantify apoptotic and viable cell populations as described previously.^16-18 Typically, lymphocytes show a reduction in FSC (a function of cytoplasmic shrinkage) and an increase in SSC (due to increased granularity) when they undergo apoptosis.^19 The quantitation of apoptosis using an FSC/SSC gating strategy in conjunction with back gating of R-phycoerythrin cyanine 5 (RPE-cy5) labeled CD19+ (Dako) or R-phycoerythrin labeled CD3+ (Dako) lymphocytes allowed simultaneous acquisition of data in viable and apoptotic B-lymphocyte and T-lymphocyte sub-populations, respectively. All LD50 and LD90 values (the concentration of the relevant chemotheraputic agent required to kill 50% and 90% of cells respectively) were derived from the dose-response curves. Duplicate samples were assessed using fluorescein (FITC)-labeled Annexin V to confirm the presence of apoptotic cells in the cell cultures and to validate the FSC/SSC quantitation method.^20
The data obtained in these experiments were evaluated using the equal variance and paired Student's t-test, and correlation coefficients were calculated from least squares linear regression plots. LD50 values were calculated from line of best-fit analysis of the dose response curves. All statistical analyses were performed using Graphpad Prism 3.0 software (Graphpad Software Inc., San Diego, Calif.).
A flow cytometry-based in vitro apoptosis detection assay was used to determine whether SJG-136 could induce apoptotic cell death in B-CLL cells. The characteristic changes in the forward and side light scatter resulting from cellular shrinkage described previously were used to define apoptosis.^19 In addition, Annexin V labeling was also performed in order to verify the light scatter data.

phosphorylated p53 = experiment: Intracellular staining of phosphorylated p53 in B-CLL cells by flow cytometry; assay type: cell-based, human; settings: 10 μM chlorambucil or 25 nM SJG-136, versus no-drug control (FIG. 4a)
Description: (§1) B-CLL cells were cultured for 4h and 48h in the presence or absence of one of the drugs under investigation. Cells were harvested by centrifugation and incubated with 10 μL of anti-CD19-RPE-cy5 conjugated antibody. Subsequently the cells were washed with phosphate buffered saline (PBS) at pH 7.2 and then prepared for intracellular staining of phosphorylated p53 and GADD45 (Santa Cruz Biotechnology, Santa Cruz, Calif.) using a commercially available kit (DAKO, Ely, UK). A FITC-labeled secondary antibody was added to the cells (DAKO) and after a final washing step the cells were resuspended in 0.5 mL of 1% paraformaldehyde prior to flow cytometric analysis using a FACScan flow cytometer (Becton Dickinson, Calif.).
(§2) Phosphorylation of p53 and expression of GADD45 were measured in control B-CLL cell samples with no cytotoxic agent added and in B-CLL cell samples in the presence of either chloambucil or SJG-136.

GADD45 = experiment: Intracellular staining of GADD45 expression in B-CLL cells by flow cytometry; assay type: cell-based, human; settings: B-CLL cells versus no-drug control (FIG. 4b)
Description: as §1, §2

B-CLL cells [2] = experiment: Flow cytometry-based in vitro apoptosis assay (FSC/SSC, Annexin V) in primary B-CLL cells; assay type: cell-based, human; settings: for mean LD50 in previously treated versus untreated patient sub-set: expanded cohort of 46 patients (FIG. 10)
calf thymus DNA = settings: after incubation for 18 hours at 37° C.; cited from earlier work
caspase-3 = experiment: SJG-136 induced caspase-3 activation in B-CLL cells (PhiPhiLux G1D2 substrate, flow cytometry); assay type: cell-based, human; settings: inhibitor final concentration 2 μM, SJG-136-treated B-CLL cell cultures
Description: B-CLL cells were incubated at 37° C. in a humidified 5% carbon dioxide atmosphere in the presence of SJG-136 (10^−10−10^−7 M) or fludarabine (10^−7″10^−5 M) for 12, 24 and 48 h. Cells were then harvested by centrifugation and labeled with CD19 RPE-cy5 conjugated antibody. Subsequently the cells were incubated for 1 h at 37° C. in the presence of the PhiPhiLux™ G1D2 substrate (Calbiochem, Nottingham, UK). The substrate contains two fluorophores separated by a quenching linker sequence that is cleaved by active caspase-3. Once cleaved the resulting products fluoresce green and can be quantified using flow cytometry. In additional experiments the caspase-8 inhibitor, Z-IETD-FMK, or the caspase-9 inhibitor, Z-LEHD-FMK, (Cambridge Bioscience, Cambridge, UK) were added to SJG-136-treated cell cultures (final concentration 2 μM) in order to determine whether either of these inhibitors was able to abrogate the apoptotic effects of SJG-136 in B-CLL cells.

[3] = 34 B-CLL patient samples, 48 h exposure
[4] = expanded cohort, 46 B-CLL patient samples

Structure (SMILES)	degree of apoptosis in the cell culture (B-CLL cells [1])	phosphorylated p53 (p-p53) (phosphorylated p53)	GADD45 expression (GADD45)	mean LD50 in previously treated versus untreated patient sub-set (B-CLL cells [1])	mean LD50 in previously treated versus untreated patient sub-set (B-CLL cells [2])	abrogation of SJG-136-induced caspase-3 activation by added caspase inhibitor (caspase-3)	other results
O=C(O)CCCc1ccc(N(CCCl)CCCl)cc1 [chlorambucil]	significantly increased over the control experiment	an increase in phosphorylated p53	much higher; also recorded: marked increase in GADD45 expression				
Nc1nc(F)nc2c1ncn2[C@@H]1O[C@H](CO)[C@@H](O)[C@@H]1O [fludarabine, reference compound]				significantly higher mean LD50 value	significantly higher mean LD50 value		in vitro sensitivity of samples from two treated patients with known p53 mutation (B-CLL cells [1]; compared with remaining patient samples): high degree of in vitro resistance
C=C1C[C@H]2C=Nc3cc(OCCCOc4cc5c(cc4OC)C(=O)N4CC(=C)C[C@H]4C=N5)c(OC)cc3C(=O)N2C1 [SJG-136]	greater degree of apoptosis than either the control experiment or the chlorambucil experiment	none of the B-CLL cells (n=9) treated with SJG-136 phosphorylated p53	only slightly higher than in the control experiment	no effect	no effect		mean LD50 value (±SD) (B-CLL cells [1]; [3]): 9.06 nM; mean LD90 value (±SD) (B-CLL cells [1]; [3]): 43.09 nM; patient samples in which apoptosis was induced (B-CLL cells [1]; 34 patient cohort): all 34 patient samples; increase in the thermal denaturation of calf thymus DNA (calf thymus DNA): 33.6 °C; patient samples in which apoptosis was induced (B-CLL cells [2]; 46 patient cohort): all 46 patient samples; mean LD50 value (±SD) (B-CLL cells [2]; [4]): 0.19 nM; mean LD90 value (±SD) (B-CLL cells [2]; [4]): 38.63 nM
CC[C@H](C)[C@H](NC(=O)OCc1ccccc1)C(=O)N[C@@H](CCC(=O)OC)C(=O)N[C@H](C(=O)N[C@@H](CC(=O)OC)C(=O)CF)[C@@H](C)O [Z-IETD.FMK, Z-IETD-FMK] (Cbz-IE(OMe)TD(OMe)-CH2F)						not	
COC(=O)CC[C@H](NC(=O)[C@H](CC(C)C)NC(=O)OCc1ccccc1)C(=O)N[C@@H](Cc1cnc[nH]1)C(=O)N[C@@H](CC(=O)OC)C(=O)CF [Z-LEHD-FMK] (Cbz-LE(OMe)HD(OMe)-CH2F)						partially abrogated	
